Data from patent publication US10800791B2, “Triazole ACC inhibitors and uses thereof” (Gilead Apollo, LLC, priority 2015, dated 2020).
In brackets after ≈: the same amount, converted by molar mass. Like-named read-outs stand apart in the source and are kept apart here.

Columns and labels:
[1] = test system: Collectotrichum graminicola (Cg); test: Growth inhibition assay of fungal pathogens, Cg; format: cell-based; conditions: 48 h
Summary of the method: (§1)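 Spores diluted in 17% V8 liquid media and incubated with compound at final 50, 10, 2 ppm or 2, 0.4, 0.08 ppm (2% DMSO). OD600 plus visual ratings at 24 and 48 hours, blank-subtracted; percent growth inhibition from 48 h readings relative to 2% DMSO control.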

[2] = test system: Fusarium moniliforme (Fm); test: Growth inhibition assay of fungal pathogens, Fm; format: cell-based; conditions: for IC90: Fusarium verticillioides, 48 h, read-out: Concentration at 90% Inhibition Fm
Summary of the method: as §1

[3] = test system: Rhizoctonia solani (Rs); test: Growth inhibition assay of fungal pathogens, Rs; format: cell-based; conditions: 48 h
[4] = test system: C. krusei; test: Antifungal Activity Assay (broth microtiter MIC), C. krusei; format: cell-based, Candida krusei; conditions: Pichia kudriavzevii, ATCC6258, 48 h
Summary of the method: (§2)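 Endpoint: lowest concentration visibly inhibiting growth relative to control after 48 h. Inoculum of 2.5×10^3 CFU/mL final in RPMI 1640+MOPS, prepared from overnight 35° C agar cultures; test compounds diluted in water to 128 μg/mL before plating.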

[5] = test system: C. parapsilosis; test: Antifungal Activity Assay (broth microtiter MIC), C. parapsilosis; format: cell-based, Candida parapsilosis; conditions: Lodderomyces parapsilosis, ATCC22019, 48 h
Summary of the method: as §2

[6] = test system: Fusarium virguliforme (Fv); test: Growth inhibition assay of fungal pathogens, Fv; format: cell-based; conditions: 48 h
Summary of the method: as §1

[7] = test system: Septoria tritici (St); test: Growth inhibition assay of fungal pathogens, St; format: cell-based; conditions: Zymoseptoria tritici, 48 h
Summary of the method: as §1

[8] = biological target: fungal (fACC2) (UniProt Q00955); conditions: read-out: fACC2 (in vitro ACC2 Inhibition Assay, IC50), ADP-Glo, 5 nM ACC2, 20 μM ATP, 20 μM acetyl-CoA
Sequence of fungal (fACC2) (Q00955 whole entry): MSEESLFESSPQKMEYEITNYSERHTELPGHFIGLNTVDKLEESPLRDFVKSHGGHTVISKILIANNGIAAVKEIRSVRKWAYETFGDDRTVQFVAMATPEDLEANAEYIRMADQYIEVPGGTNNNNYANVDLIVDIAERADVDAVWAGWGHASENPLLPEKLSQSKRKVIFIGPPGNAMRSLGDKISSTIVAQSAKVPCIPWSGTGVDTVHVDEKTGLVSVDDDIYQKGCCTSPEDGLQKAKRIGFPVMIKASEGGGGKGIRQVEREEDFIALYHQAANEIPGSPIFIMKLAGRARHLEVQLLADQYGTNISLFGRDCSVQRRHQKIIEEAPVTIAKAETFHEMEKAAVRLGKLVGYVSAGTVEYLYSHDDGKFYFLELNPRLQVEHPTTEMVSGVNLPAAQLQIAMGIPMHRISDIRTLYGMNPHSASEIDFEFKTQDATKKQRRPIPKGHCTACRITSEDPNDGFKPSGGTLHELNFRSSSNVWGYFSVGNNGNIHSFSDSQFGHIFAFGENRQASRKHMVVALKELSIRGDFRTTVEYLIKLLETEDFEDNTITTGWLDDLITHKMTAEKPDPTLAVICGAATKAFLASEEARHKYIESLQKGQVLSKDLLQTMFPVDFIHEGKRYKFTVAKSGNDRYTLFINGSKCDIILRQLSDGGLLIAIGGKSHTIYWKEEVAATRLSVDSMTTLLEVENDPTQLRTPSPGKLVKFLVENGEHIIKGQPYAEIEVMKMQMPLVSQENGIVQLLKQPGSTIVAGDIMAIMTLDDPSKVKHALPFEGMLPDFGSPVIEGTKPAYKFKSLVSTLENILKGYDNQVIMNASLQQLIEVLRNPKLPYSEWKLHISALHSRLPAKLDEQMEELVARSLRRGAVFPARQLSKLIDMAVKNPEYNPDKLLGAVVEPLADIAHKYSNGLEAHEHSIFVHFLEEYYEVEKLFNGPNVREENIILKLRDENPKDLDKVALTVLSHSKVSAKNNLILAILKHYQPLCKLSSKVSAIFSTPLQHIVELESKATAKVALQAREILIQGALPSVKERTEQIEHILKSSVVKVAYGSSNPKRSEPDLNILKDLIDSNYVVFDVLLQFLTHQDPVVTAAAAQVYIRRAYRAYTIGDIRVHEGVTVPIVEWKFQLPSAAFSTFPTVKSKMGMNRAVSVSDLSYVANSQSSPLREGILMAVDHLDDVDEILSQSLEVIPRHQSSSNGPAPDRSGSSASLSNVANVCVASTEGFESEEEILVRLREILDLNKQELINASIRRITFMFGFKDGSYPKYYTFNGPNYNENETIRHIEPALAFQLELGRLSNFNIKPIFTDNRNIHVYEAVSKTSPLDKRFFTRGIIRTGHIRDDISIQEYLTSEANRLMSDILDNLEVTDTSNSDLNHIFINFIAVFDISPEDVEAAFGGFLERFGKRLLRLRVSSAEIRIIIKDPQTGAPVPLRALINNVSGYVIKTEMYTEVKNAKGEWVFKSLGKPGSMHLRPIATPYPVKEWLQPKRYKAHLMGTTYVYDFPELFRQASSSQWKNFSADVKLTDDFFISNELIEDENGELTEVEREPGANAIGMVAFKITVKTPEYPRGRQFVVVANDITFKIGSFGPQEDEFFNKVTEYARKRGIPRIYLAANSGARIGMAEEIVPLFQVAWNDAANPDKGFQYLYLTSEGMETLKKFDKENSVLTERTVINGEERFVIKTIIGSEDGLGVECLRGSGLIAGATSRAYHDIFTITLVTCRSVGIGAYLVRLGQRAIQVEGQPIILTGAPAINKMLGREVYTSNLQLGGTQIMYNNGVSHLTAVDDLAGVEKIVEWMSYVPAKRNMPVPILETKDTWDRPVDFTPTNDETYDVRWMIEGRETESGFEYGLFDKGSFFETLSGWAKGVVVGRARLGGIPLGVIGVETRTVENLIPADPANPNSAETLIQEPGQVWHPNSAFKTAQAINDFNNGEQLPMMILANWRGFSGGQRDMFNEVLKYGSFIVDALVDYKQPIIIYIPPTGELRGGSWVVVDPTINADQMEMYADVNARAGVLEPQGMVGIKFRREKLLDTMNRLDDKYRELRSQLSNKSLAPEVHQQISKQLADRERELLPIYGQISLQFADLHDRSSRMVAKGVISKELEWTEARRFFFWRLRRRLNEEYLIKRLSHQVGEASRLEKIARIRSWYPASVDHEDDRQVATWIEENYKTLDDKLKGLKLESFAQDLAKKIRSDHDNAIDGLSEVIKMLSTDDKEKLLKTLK

[9] = biological target: human (hACC2) (Homo sapiens, UniProt O00763); test: In vitro ACC inhibition assay (ADP-Glo), hACC2; format: biochemical; conditions: 5 nM ACC2, 20 μM ATP, 20 μM acetyl-CoA
Sequence of human (hACC2) (O00763 whole entry): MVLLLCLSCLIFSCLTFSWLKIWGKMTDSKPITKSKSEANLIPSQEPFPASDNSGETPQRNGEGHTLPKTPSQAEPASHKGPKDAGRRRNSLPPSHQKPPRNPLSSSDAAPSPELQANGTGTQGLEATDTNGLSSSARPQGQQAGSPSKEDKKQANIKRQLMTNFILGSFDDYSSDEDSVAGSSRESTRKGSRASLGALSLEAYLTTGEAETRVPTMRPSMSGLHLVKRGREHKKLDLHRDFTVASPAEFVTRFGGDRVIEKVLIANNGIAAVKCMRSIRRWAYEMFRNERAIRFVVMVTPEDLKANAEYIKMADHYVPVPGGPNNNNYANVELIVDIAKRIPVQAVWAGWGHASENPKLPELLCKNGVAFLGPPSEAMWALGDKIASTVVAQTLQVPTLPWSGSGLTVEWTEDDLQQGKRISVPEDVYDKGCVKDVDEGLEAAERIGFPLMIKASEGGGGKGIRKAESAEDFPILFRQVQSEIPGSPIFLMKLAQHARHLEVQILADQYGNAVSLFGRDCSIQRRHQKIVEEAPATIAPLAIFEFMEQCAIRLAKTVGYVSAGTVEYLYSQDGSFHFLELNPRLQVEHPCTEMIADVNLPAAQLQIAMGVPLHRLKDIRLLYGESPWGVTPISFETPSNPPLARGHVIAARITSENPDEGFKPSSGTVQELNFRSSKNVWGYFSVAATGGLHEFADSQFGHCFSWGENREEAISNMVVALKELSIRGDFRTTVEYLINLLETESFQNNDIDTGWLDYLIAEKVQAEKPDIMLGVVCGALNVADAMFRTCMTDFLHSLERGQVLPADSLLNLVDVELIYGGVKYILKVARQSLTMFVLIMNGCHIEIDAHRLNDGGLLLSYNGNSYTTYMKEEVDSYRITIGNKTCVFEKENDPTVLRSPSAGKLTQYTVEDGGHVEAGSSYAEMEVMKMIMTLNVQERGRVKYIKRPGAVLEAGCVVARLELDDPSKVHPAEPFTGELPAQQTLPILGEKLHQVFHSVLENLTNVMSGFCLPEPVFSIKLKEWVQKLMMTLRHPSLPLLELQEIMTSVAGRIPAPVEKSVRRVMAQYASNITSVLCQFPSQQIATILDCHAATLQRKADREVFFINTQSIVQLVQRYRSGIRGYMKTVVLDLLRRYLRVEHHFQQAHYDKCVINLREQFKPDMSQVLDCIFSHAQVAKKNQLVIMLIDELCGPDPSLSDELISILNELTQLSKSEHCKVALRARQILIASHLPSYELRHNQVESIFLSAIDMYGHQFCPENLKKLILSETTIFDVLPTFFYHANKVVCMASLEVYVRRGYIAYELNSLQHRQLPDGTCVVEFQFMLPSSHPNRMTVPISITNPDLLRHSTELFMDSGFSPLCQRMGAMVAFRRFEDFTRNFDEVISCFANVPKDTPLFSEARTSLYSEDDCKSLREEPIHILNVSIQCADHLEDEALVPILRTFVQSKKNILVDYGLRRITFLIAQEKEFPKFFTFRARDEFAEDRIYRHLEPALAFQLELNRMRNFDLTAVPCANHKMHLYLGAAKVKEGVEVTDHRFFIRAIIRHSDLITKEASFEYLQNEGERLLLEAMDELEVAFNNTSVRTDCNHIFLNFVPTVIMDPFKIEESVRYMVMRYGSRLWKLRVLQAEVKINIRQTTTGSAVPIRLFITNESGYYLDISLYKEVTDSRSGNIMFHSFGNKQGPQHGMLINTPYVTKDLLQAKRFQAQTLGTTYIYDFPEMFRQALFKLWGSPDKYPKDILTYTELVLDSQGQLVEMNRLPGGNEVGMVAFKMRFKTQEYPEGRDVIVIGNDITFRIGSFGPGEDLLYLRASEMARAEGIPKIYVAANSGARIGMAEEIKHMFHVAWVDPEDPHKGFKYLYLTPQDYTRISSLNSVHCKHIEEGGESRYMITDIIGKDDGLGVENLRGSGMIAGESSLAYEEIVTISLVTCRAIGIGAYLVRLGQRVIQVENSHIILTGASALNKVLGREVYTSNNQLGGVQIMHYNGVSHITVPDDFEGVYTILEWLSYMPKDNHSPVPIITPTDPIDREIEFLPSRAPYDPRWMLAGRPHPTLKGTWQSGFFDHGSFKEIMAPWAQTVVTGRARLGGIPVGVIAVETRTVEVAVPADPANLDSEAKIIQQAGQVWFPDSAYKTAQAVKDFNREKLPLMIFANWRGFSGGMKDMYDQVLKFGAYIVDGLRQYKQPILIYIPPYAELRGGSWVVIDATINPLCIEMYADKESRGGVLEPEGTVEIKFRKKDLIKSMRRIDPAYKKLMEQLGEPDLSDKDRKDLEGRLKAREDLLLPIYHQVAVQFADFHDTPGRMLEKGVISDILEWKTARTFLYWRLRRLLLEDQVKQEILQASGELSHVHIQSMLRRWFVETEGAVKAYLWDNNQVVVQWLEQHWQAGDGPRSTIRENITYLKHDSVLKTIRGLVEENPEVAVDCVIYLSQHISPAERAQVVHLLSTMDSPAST
Method: The detailed procedure is as follows. […] 10 μL ADP glo reagent was added. […] 20 μL kinase detection reagent was added.

[10] = test system: Phytophthora capsici (Pc); test: Growth inhibition assay of fungal pathogens, Pc; format: cell-based; conditions: 48 h
Summary of the method: as §1

[11] = Collectotrichum graminicola, growth inhibition at 48 hours vs 2% DMSO control, read-out: Concentration at 90% Inhibition Cg
[12] = Collectotrichum graminicola, growth inhibition vs 2% DMSO control at 48 hours, read-out: Concentration at 90% Inhibition Cg
[13] = Fusarium moniliforme, growth inhibition at 48 hours vs 2% DMSO control
[14] = Fusarium moniliforme, growth inhibition vs 2% DMSO control at 48 hours
[15] = mycelial plugs, growth inhibition at 48 hours vs 2% DMSO control, read-out: Concentration at 90% Inhibition Rs
[16] = mycelial plugs, growth inhibition vs 2% DMSO control at 48 hours, read-out: Concentration at 90% Inhibition Rs
[17] = Table 3a, ATCC 6258, 3 replicates, MIC recorded at 48 h, read-out: MIC, C. krusei ATCC 6258
[18] = Table 3b (additional results), ATCC 6258, 3 replicates, MIC recorded at 48 h, read-out: MIC, C. krusei ATCC 6258
[19] = Table 3a, ATCC 22019, 3 replicates, MIC recorded at 48 h, read-out: MIC, C. parapsilosis ATCC 22019
[20] = Table 3b (additional results), ATCC 22019, 3 replicates, MIC recorded at 48 h, read-out: MIC, C. parapsilosis ATCC 22019
[21] = growth inhibition at 48 hours vs 2% DMSO control, read-out: Concentration at 90% Inhibition Fv
[22] = growth inhibition vs 2% DMSO control at 48 hours, read-out: Concentration at 90% Inhibition Fv
[23] = Septoria tritici, growth inhibition at 48 hours vs 2% DMSO control, read-out: Concentration at 90% Inhibition St
[24] = Septoria tritici, growth inhibition vs 2% DMSO control at 48 hours, read-out: Concentration at 90% Inhibition St
[25] = growth inhibition at 48 hours vs 2% DMSO control, read-out: Concentration at 90% Inhibition Pc
[26] = growth inhibition vs 2% DMSO control at 48 hours, read-out: Concentration at 90% Inhibition Pc
[27] = read-out: Concentration at 90% Inhibition Cg, Collectotrichum graminicola, growth inhibition at 48 hours vs 2% DMSO control
[28] = read-out: Concentration at 90% Inhibition Cg, Collectotrichum graminicola, growth inhibition vs 2% DMSO control at 48 hours
[29] = read-out: Concentration at 90% Inhibition Rs, Rhizoctonia solani, mycelial plugs, growth inhibition at 48 hours vs 2% DMSO control
[30] = read-out: Concentration at 90% Inhibition Rs, Rhizoctonia solani, mycelial plugs, growth inhibition vs 2% DMSO control at 48 hours
[31] = read-out: MIC, C. krusei ATCC 6258, Table 3a, 3 replicates, MIC recorded at 48 h
[32] = read-out: MIC, C. krusei ATCC 6258, Table 3b (additional results), 3 replicates, MIC recorded at 48 h
[33] = read-out: MIC, C. parapsilosis ATCC 22019, Table 3a, 3 replicates, MIC recorded at 48 h
[34] = read-out: MIC, C. parapsilosis ATCC 22019, Table 3b (additional results), 3 replicates, MIC recorded at 48 h
[35] = read-out: Concentration at 90% Inhibition Fv, Fusarium virguliforme, growth inhibition at 48 hours vs 2% DMSO control
[36] = read-out: Concentration at 90% Inhibition Fv, Fusarium virguliforme, growth inhibition vs 2% DMSO control at 48 hours
[37] = read-out: Concentration at 90% Inhibition St, Septoria tritici, growth inhibition at 48 hours vs 2% DMSO control
[38] = read-out: Concentration at 90% Inhibition St, Septoria tritici, growth inhibition vs 2% DMSO control at 48 hours
[39] = read-out: Concentration at 90% Inhibition Pc, Phytophthora capsici, growth inhibition at 48 hours vs 2% DMSO control
[40] = read-out: Concentration at 90% Inhibition Pc, Phytophthora capsici, growth inhibition vs 2% DMSO control at 48 hours

Structure (SMILES) | IC50 ([8]; Table 2a) [nM] | IC50 ([8]; Table 2b, additional results) [nM] | IC50 ([9]; Table 2a) [nM] | IC50 ([9]; Table 2b, additional results) [nM] | IC90 [1, 27] [µg/mL] | IC90 [1, 28] [µg/mL] | Concentration at 90% Inhibition Fm [2, 13] | IC90 [2] [µg/mL] | IC90 [3, 29] [µg/mL] | IC90 [3, 30] [µg/mL] | MIC [4, 31] [µg/mL] | MIC [4, 32] [µg/mL] | MIC [5, 33] [µg/mL] | MIC [5, 34] [µg/mL] | IC90 [6, 35] [µg/mL] | IC90 [6, 36] [µg/mL] | IC90 [7, 37] [µg/mL] | IC90 [7, 38] [µg/mL] | IC90 [10, 39] [µg/mL] | IC90 [10, 40] [µg/mL] | also measured
COc1ccc(F)cc1[C@H](Cn1c(=O)n(C(C)(C)C(=O)N2CCCC2)c(=O)c2c(C)c(-n3nccn3)sc21)OC[C@@H](C)O [Compound I-46, 1-((R)-2-(5-fluoro-2-methoxyphenyl)-2-((R)-2-hydroxypropoxy)ethyl)-5-methyl-3-(2-methyl-1-oxo-1-(pyrrolidin-1-yl)propan-2-yl)-6-(2H-1,2,3-triazol-2-yl)thieno[2,3-d]pyrimidine-2,4(1H,3H)-dione] | 1 to 5 | 1 to 5 | 5 to 10 | 5 to 10 | – | – | – | – | – | – | – | – | – | – | – | – | – | – | – | – | IC90 [1, 11]: 0.4 µg/mL (≈ 0.651 µM); IC90 [1, 12]: 0.4 µg/mL (≈ 0.651 µM); IC90 [2, 13]: 0.08 µg/mL (≈ 0.13 µM); IC90 [2, 14]: 0.08 µg/mL (≈ 0.13 µM); IC90 [3, 15]: 0.4 µg/mL (≈ 0.651 µM); IC90 [3, 16]: 0.4 µg/mL (≈ 0.651 µM); MIC [4, 17]: 0.25 to 1 µg/mL (≈ 0.407 to 1.63 µM); MIC [4, 18]: 2.01 to 4 µg/mL (≈ 3.27 to 6.51 µM); MIC [5, 19]: 1.1 to 2 µg/mL (≈ 1.79 to 3.25 µM); MIC [5, 20]: 1.01 to 2 µg/mL (≈ 1.64 to 3.25 µM); IC90 [6, 21]: 2 µg/mL (≈ 3.25 µM); IC90 [6, 22]: 2 µg/mL (≈ 3.25 µM); IC90 [7, 23]: > 50 µg/mL; IC90 [7, 24]: > 50 µg/mL; IC90 [10, 25]: > 50 µg/mL; IC90 [10, 26]: > 50 µg/mL
COCCCO[C@@H](Cn1c(=O)n([C@@H](C)C(=O)NC(C)C)c(=O)c2c(C)c(-n3nccn3)sc21)c1cc(F)ccc1OC [Compound I-86, (S)-2-(1-((R)-2-(5-fluoro-2-methoxyphenyl)-2-(3-methoxy-propoxy)ethyl)-5-methyl-2,4-dioxo-6-(2H-1,2,3-triazol-2-yl)-1,4-dihydrothieno[2,3-d]pyrimidin-3(2H)-yl)-N-isopropylpropanamide] | 1 to 5 | 1 to 5 | 10 to 40 | 10 to 40 | 10 (≈ 16.6 µM) | > 50 | AA (compound concentration of 0.08 ppm at 90% inhibition of fungal pathogens) | 0.08 (≈ 0.133 µM) | 2 (≈ 3.32 µM) | 2 (≈ 3.32 µM) | 2.1 to 4 (≈ 3.48 to 6.64 µM) | 1.01 to 2 (≈ 1.68 to 3.32 µM) | 2.1 to 4 (≈ 3.48 to 6.64 µM) | 1.01 to 2 (≈ 1.68 to 3.32 µM) | 10 (≈ 16.6 µM) | > 50 | > 50 | > 50 | > 50 | > 50 | –
COCCOc1ccc(F)cc1[C@H](Cn1c(=O)n(C(C)(C)C(=O)NC(C)C)c(=O)c2c(C)c(-n3nccn3)sc21)OC(C)C [Compound I-54, (R)-2-(1-(2-(5-fluoro-2-(2-methoxyethoxy)phenyl)-2-isopropoxyethyl)-5-methyl-2,4-dioxo-6-(2H-1,2,3-triazol-2-yl)-1,4-dihydrothieno[2,3-d]pyrimidin-3(2H)-yl)-N-isopropyl-2-methylpropanamide] | 1 to 5 | 1 to 5 | 10 to 40 | 10 to 40 | – | – | – | – | – | – | – | – | – | – | – | – | – | – | – | – | IC90 [1, 11]: 0.4 µg/mL (≈ 0.634 µM); IC90 [1, 12]: 0.4 µg/mL (≈ 0.634 µM); IC90 [2, 13]: 0.08 µg/mL (≈ 0.127 µM); IC90 [2, 14]: 0.08 µg/mL (≈ 0.127 µM); IC90 [3, 15]: 0.4 µg/mL (≈ 0.634 µM); IC90 [3, 16]: 0.4 µg/mL (≈ 0.634 µM); MIC [4, 17]: 0.25 to 1 µg/mL (≈ 0.396 to 1.59 µM); MIC [4, 18]: 0.25 to 1 µg/mL (≈ 0.396 to 1.59 µM); MIC [5, 19]: 0.25 to 1 µg/mL (≈ 0.396 to 1.59 µM); MIC [5, 20]: 1.01 to 2 µg/mL (≈ 1.6 to 3.17 µM); IC90 [6, 21]: 0.4 µg/mL (≈ 0.634 µM); IC90 [6, 22]: 0.4 µg/mL (≈ 0.634 µM); IC90 [7, 23]: > 50 µg/mL; IC90 [7, 24]: > 50 µg/mL; IC90 [10, 25]: > 50 µg/mL; IC90 [10, 26]: > 50 µg/mL
COc1ccc(F)cc1[C@H](Cn1c(=O)n(CC(=O)NC(C)C)c(=O)c2c(C)c(-n3nccn3)sc21)OCCO [Compound I-82, (R)-2-(1-(2-(5-fluoro-2-methoxyphenyl)-2-(2-hydroxy-ethoxy)ethyl)-5-methyl-2,4-dioxo-6-(2H-1,2,3-triazol-2-yl)-1,4-dihydro-thieno[2,3-d]pyrimidin-3(2H)-yl)-N-isopropylacetamide] | 1 to 5 | 1 to 5 | 1 to 5 | 1 to 5 | 2 (≈ 3.57 µM) | 2 (≈ 3.57 µM) | AA (compound concentration of 0.08 ppm at 90% inhibition of fungal pathogens) | 0.08 (≈ 0.143 µM) | 2 (≈ 3.57 µM) | 2 (≈ 3.57 µM) | 2.1 to 4 (≈ 3.75 to 7.14 µM) | 2.01 to 4 (≈ 3.59 to 7.14 µM) | 2.1 to 4 (≈ 3.75 to 7.14 µM) | 2.01 to 4 (≈ 3.59 to 7.14 µM) | 2 (≈ 3.57 µM) | 2 (≈ 3.57 µM) | > 50 | > 50 | > 50 | > 50 | –
COc1ccc(F)cc1[C@H](Cn1c(=O)n(C(C)(C)C(=O)NCC#N)c(=O)c2c(C)c(-n3nccn3)sc21)OC(C)C [Compound I-52, (R)—N-(cyanomethyl)-2-(1-(2-(5-fluoro-2-methoxyphenyl)-2-isopropoxyethyl)-5-methyl-2,4-dioxo-6-(2H-1,2,3-triazol-2-yl)-1,4-dihydro-thieno[2,3-d]pyrimidin-3(2H)-yl)-2-methylpropanamide] | 1 to 5 | 1 to 5 | 10 to 40 | 10 to 40 | 10 (≈ 17.1 µM) | > 50 | B (compound concentration of 2.0 ppm at 90% inhibition of fungal pathogens) | 2 (≈ 3.43 µM) | > 50 | > 50 | 2.1 to 4 (≈ 3.6 to 6.85 µM) | 0.25 to 1 (≈ 0.428 to 1.71 µM) | 2.1 to 4 (≈ 3.6 to 6.85 µM) | 2.01 to 4 (≈ 3.44 to 6.85 µM) | 2 (≈ 3.43 µM) | 2 (≈ 3.43 µM) | > 50 | > 50 | > 50 | > 50 | –
